Test results reported in paper PMC2772130 (Chemical research in toxicology, 2008).

Key:
[1] = biological target: T1, P450 1B1 (Homo sapiens, UniProt Q16678); assay: Quenching of P450 1B1; type: binding; conditions: extrapolated % quenching; 1.0 μM P450 1B1
T1 sequence (Q16678 1-543): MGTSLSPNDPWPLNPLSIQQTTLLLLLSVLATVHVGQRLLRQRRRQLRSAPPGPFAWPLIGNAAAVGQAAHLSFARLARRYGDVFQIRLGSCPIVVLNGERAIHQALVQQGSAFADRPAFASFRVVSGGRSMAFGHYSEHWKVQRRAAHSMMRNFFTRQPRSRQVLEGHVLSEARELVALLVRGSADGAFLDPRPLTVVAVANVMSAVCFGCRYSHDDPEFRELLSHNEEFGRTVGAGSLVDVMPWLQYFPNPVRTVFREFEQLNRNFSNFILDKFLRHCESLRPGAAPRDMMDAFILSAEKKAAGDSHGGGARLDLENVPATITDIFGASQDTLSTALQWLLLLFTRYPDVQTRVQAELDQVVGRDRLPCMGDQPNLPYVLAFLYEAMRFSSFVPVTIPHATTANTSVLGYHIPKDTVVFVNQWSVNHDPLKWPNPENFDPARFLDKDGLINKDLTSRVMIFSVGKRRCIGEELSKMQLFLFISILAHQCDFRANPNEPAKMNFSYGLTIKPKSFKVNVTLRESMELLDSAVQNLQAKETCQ

[2] = biological target: T1, P450 1B1
[3] = biological target: T1, P450 1B1; conditions: cited from earlier work
[4] = biological target: T2, P450 1A1 (Homo sapiens, UniProt P04798); conditions: cited from earlier work
T2 sequence (P04798 1-512): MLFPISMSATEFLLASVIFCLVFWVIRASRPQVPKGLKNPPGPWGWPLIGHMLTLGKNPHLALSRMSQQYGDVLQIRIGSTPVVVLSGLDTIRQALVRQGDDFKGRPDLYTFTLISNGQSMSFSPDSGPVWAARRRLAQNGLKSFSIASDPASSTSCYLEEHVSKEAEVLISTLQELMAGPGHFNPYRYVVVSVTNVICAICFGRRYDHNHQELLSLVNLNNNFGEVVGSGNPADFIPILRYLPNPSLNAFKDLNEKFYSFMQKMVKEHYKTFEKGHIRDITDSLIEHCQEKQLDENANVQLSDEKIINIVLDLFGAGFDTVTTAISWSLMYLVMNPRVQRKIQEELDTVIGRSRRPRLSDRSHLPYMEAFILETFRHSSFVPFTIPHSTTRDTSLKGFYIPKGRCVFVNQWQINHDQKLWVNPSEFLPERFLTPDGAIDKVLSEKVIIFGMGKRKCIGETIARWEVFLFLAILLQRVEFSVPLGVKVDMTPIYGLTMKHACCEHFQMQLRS

[5] = biological target: T1, P450 1B1; assay: Spectral binding titrations with purified P450 1B1; conditions: for wavelengths (peak/trough): 1 μM P450 1B1, pH 7.4
[6] = biological target: T2, P450 1A1; assay: Quenching of inhibitor-derived fluorescence with P450 1A1; conditions: enzyme and inhibitor 10 nM; 25 °C
[7] = biological target: T3, P450 1A2 (Homo sapiens, UniProt P05177); assay: Quenching of inhibitor-derived fluorescence with P450 1A2; conditions: enzyme and inhibitor 10 nM; 25 °C
T3 sequence (P05177 1-516): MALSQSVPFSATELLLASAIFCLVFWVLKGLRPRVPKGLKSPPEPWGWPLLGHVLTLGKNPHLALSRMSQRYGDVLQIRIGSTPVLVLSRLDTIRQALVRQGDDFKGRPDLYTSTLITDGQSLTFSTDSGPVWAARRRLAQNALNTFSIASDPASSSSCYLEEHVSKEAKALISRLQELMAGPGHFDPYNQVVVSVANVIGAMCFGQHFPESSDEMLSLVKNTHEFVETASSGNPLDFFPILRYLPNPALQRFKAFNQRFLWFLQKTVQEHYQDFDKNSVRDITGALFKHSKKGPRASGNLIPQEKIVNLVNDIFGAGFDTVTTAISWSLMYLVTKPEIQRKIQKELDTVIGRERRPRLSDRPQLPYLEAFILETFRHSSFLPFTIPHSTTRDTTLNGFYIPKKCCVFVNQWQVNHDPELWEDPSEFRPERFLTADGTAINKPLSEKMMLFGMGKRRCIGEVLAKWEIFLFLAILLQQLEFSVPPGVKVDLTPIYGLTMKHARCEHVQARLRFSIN

[8] = biological target: T1, P450 1B1; assay: Quenching of PAH; conditions: for half-maximal time (t1/2) to decrease B[a]P emission: 10 nM P450 1B1, 25 °C
[9] = biological target: T1, P450 1B1; assay: Inhibition of P450 1B1-dependent 7-ethoxyresorufin O-deethylation; conditions: for IC50: inhibition of EROD activity IC50, 15 s of incubation time (direct and direct/restore inhibitors), means and SE
[10] = biological target: T2, P450 1A1; assay: Inhibition of P450 1A1-dependent EROD activity; type: biochemical; conditions: for fold increase in EROD Km of P450 1A1: 1PP 66 nM, 3PPh 333 nM
[11] = biological target: T3, P450 1A2; assay: Inhibition of P450 1A2-dependent EROD activity; type: biochemical; conditions: 37 °C
[12] = biological target: T2, P450 1A1; assay: Quenching of P450 fluorescence with inhibitors, P450 1A1; type: binding
[13] = biological target: T3, P450 1A2; assay: Quenching of P450 fluorescence with inhibitors, P450 1A2; type: binding
[14] = biological target: T3, P450 1A2; conditions: cited from earlier work

Structure (SMILES)	PAH binding to P450 1B1 Bmax [1] [%]	ΔAmax / Ks [2]	mechanism of inhibition of P450 1B1 [3]	mechanism of inhibition of P450 1A1 [4]	Kd [5] [µM]	wavelengths (peak/trough) [5]	Kd [8] [µM]	IC50 [9] [µM]	mechanism of inhibition of P450 1A2 EROD activity [11]	Kd [12] [µM]	Kd [13] [µM]	further results
C#Cc1ccc2ccc3cccc4ccc1c2c34 [1EP, 1-ethynylpyrene]	74 ± 1	0.017	direct inhibitors	mechanism-based manner	2.9 ± 1	416/383	0.0019 to 0.018	0.031 ± 0.004				fluorescence quenching with P450 1A1 [6]: to a lesser extent with P450 1A1 than 1B1; interaction with P450 1A2 (fluorescence quenching) [7]: No interactions
CC#Cc1ccc2ccc3cccc4ccc1c2c34 [1PP, 1-(1-propynyl)pyrene]	69 ± 1	0.016	direct inhibitors	mechanism-based manner	2.7 ± 0.4	416/383	0.0019 to 0.018	0.022 ± 0.003	mechanism-based manner	~10	~10	fold increase in EROD Km of P450 1A1 ([10]; at 360 s): 10 fold; fold increase in EROD Km of P450 1A1 ([10]; initial incubation time): ~ 8 fold; mechanism of inhibition of P450 1A1 EROD activity ([10]; 37 °C, 30 min): mechanism-based inhibitors; EROD kcat of P450 1B1 relative to controls ([9]; 1PP 66 nM, 3PPh 33 nM, after 6 min of incubation): 44%; fold increase in EROD Km of P450 1B1 ([9]; 1PP 66 nM, 3PPh 33 nM, at 15 s): 6.8 fold; EROD kcat of P450 1B1 relative to control, first decrease ([9]; initial stage of incubation): ~ one-fifth
c1ccc2c(c1)cc1ccc3cccc4ccc2c1c34 [B[a]P, benzo[a]pyrene]							0.011	0.031 ± 0.004	directly inhibited by low concentration of B[a]P, but the inhibition was increased with time at higher B[a]P concentrations	~10	~10	mechanism of inhibition of P450 1A2 [14]: mechanism-based manner; half-maximal time (t1/2) to decrease B[a]P emission ([8]; 2.5 nM B[a]P): 33 s; half-maximal time (t1/2) to decrease B[a]P emission ([8]; 5 nM B[a]P): 15 s; half-maximal time (t1/2) to decrease B[a]P emission ([8]; 10 nM B[a]P): 7.5 s
